The values below come from US20230248826A1, “Synchronizing Tumor Cells to the G2/M Phase Using TTFields Combined with Taxane or Other Anti-Microtubule Agents” (Novocure GmbH, priority 2016, published 2023).

Holding throughout (assay type): cell-based, human
The test system of assay [1] is Caov-3 cells. Briefly: Mitotic figures analysis by confocal microscopy, Caov-3. Conditions: 4 nM paclitaxel combined with 2.7 V/cm pk-pk, 200 kHz TTFields, 72 hours, Caov-3, compared to control and single treatments. Here is the method: (§1) The human ovarian carcinoma cell line A2780 was obtained from the European Collection of Cell Cultures. The human ovarian adenocarcinoma cell lines OVCAR-3 (HTB-161) and Caov-3 (HTB-75) were obtained from the American Type Culture Collection (ATCC). Paclitaxel (Sigma Aldrich, Rehovot, Israel) dissolved in DMSO was used at the following concentrations: 1 nM, 2 nM, 4 nM, 10 nM, and 100 nM.
(§2) TTFields were applied in vitro using special ceramic Petri dishes with two pairs of transducer arrays printed perpendicularly on the outer walls of a Petri dish. The inner surfaces of the electrodes were coated with a high dielectric constant ceramic (lead magnesium niobate-lead titanate (PMN-PT)). The transducer arrays were connected to a sinusoidal waveform generator which generated fields at 200 kHz in the medium. By selectively activating the signals that were applied to the electrodes, the orientation of the TTFields was switched 90° every 1 second, thus covering the majority of the orientation axis of cell divisions, as previously described by Kirson et al. During the experiment, temperature was measured by 2 thermistors (Omega Engineering, Stamford, Conn.) attached to the walls of the Petri dish. All cells suspensions were grown on a cover slip inside the Petri dish and treated with TTFields at intensity of 2.7 V/cm. […]

Assay [2] concerns A2780 cells. As to the kind of experiment: Cell cycle analysis by flow cytometry, A2780. The conditions noted are these: 8 hours. Here is the method:
(§3) The human ovarian carcinoma cell line A2780 was obtained from the European Collection of Cell Cultures. The human ovarian adenocarcinoma cell lines OVCAR-3 (HTB-161) and Caov-3 (HTB-75) were obtained from the American Type Culture Collection (ATCC). Paclitaxel (Sigma Aldrich, Rehovot, Israel) dissolved in DMSO was used at the following concentrations: 1 nM, 2 nM, 4 nM, 10 nM, and 100 nM. TTFields were applied in vitro using special ceramic Petri dishes with two pairs of transducer arrays printed perpendicularly on the outer walls of a Petri dish. The inner surfaces of the electrodes were coated with a high dielectric constant ceramic (lead magnesium niobate-lead titanate (PMN-PT)). […] By selectively activating the signals that were applied to the electrodes, the orientation of the TTFields was switched 90° every 1 second, thus covering the majority of the orientation axis of cell divisions, as previously described by Kirson et al. During the experiment, temperature was measured by 2 thermistors (Omega Engineering, Stamford, Conn.) attached to the walls of the Petri dish. […] Cell cycle distribution was then quantified using iCyt EC800. Fluorescence signals were collected at the wavelengths of 525/50 nm for Annexin V and 665/30 nm for 7-AAD. The data was analyzed using the Flowjo software. […]
For orientation: Flow cytometry measures light scatter and fluorescence of single cells or particles in a stream.

Assay [3] has as its system A2780 cells. Briefly: Mitotic figures analysis by confocal microscopy, A2780. The conditions noted are these: 4 nM paclitaxel combined with 2.7 V/cm pk-pk, 200 kHz TTFields, 72 hours, A2780, compared to control and single treatments. Here is the method: as §1, §2
For assay [4], the system named is OVCAR-3 cells. Briefly: Cell cycle analysis by flow cytometry, OVCAR-3. The conditions noted are these: 72 hours. Here is the method:
as §3

The test system of assay [5] is OVCAR-3 cells. Briefly: Mitotic figures analysis by confocal microscopy, OVCAR-3. Conditions: 4 nM paclitaxel combined with 2.7 V/cm pk-pk, 200 kHz TTFields, 72 hours, OVCAR-3, compared to control and single treatments. Here is the method:
as §1, §2

Assay [6] has as its system Caov-3 cells. As to the kind of experiment: Cell cycle analysis by flow cytometry, Caov-3. The conditions noted are these: 72 hours. Here is the method:
as §3

Where [7] appears, read: paclitaxel alone, without TTFields.
Setting [8] is: low dose paclitaxel (2, 4 and 10 nM) combined with TTFields (2.7 V/cm, 200 kHz).

Regarding `CC(=O)O[C@H]1C(=O)[C@@]2(C)[C@H]([C@H](OC(=O)c3ccccc3)[C@]3(O)C[C@H](OC(=O)[C@H](O)[C@@H](NC(=O)c4ccccc4)c4ccccc4)C(C)=C1C3(C)C)[C@]1(OC(C)=O)CO[C@@H]1C[C@@H]2O` [paclitaxel], the “mitotic figures (mitotic arrest)” value in the assay with Caov-3 cells [1], with A2780 cells [3] and with OVCAR-3 cells [5] was “substantial increase in mitotic figures” each time. In addition, the “cells in the G2/M phase” value is recorded as “accumulated in the G2/M phase even after a short treatment duration” with A2780 cells [2] (low dose paclitaxel combined with TTFields (2.7 V/cm, 200 kHz)); “accumulated in the G2/M phase in a dose dependent manner” with A2780 cells [2] (setting [7]); “accumulated in the G2/M phase in a dose dependent manner” in the assay on OVCAR-3 cells [4] (setting [7]); “accumulated in the G2/M phase in a dose dependent manner” with Caov-3 cells [6] (setting [7]). The “number of cells in the G2/M phase” value in the assay on OVCAR-3 cells [4] (setting [8]) and with Caov-3 cells [6] (setting [8]) was “dramatically increased” throughout.
